The structures appear in SMILES notation. “Also recorded” adds a separate entry of the source.

Data set [1] concerns the target T1, AHR (Homo sapiens, UniProt P35869).
T1 sequence (P35869 11-848): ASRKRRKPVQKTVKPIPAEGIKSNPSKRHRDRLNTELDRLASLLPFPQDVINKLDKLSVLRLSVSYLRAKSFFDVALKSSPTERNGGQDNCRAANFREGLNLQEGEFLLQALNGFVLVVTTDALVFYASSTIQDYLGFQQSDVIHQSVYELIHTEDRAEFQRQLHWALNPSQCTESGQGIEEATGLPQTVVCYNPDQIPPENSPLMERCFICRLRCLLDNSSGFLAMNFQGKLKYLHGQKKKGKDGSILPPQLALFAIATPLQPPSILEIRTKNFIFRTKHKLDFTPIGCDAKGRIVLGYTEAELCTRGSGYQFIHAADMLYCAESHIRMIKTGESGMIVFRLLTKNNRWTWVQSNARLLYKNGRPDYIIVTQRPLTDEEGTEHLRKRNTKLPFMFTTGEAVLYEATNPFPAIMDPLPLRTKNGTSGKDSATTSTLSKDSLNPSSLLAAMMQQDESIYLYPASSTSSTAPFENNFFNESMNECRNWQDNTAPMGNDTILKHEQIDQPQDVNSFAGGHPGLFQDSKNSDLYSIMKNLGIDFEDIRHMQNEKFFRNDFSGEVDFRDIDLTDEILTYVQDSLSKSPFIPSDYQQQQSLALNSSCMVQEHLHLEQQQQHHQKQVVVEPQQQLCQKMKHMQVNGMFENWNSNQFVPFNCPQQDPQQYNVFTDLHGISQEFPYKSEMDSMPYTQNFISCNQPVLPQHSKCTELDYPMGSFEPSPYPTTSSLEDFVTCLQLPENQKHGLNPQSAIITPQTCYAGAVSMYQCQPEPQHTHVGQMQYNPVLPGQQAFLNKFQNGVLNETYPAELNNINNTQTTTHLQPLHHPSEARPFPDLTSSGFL
As to the kind of experiment: Selectivity for AHR over other receptors, transporters, and kinases.

The nature of data set [2]: Nonclinical safety: single-dose and repeated-dose toxicological studies. It is filed as in vivo, rodent and non-rodent species. The settings on record: species not specified.
Data set [3] can be described thus: Nonclinical safety studies in rat (incl. 28-day GLP). It is filed as in vivo.
Data set [4] in a line: Phase 1 study, interim cohort pharmacokinetics. It is filed as in vivo, human. As to the method: Serial blood samples are obtained to characterize the plasma PK of Compound A and its major active metabolites. The initial sampling strategy is based on the predicted human PK of this compound. If in the course of evaluating the PK, it is determined that an alternative sampling scheme would be more informative, then that alternative sampling scheme can be implemented if the total amount of blood and blood draws obtained for PK is not increased. Moreover, the total number of samples can be decreased at any time if the initial sampling scheme is considered unnecessarily intensive.

Data set [5] has as its target T1, AHR. Briefly: Phase 1 study, pharmacodynamic whole blood assay of AHR target genes. It is filed as in vivo. Particulars: all subjects in the 200 mg, 400 mg, and 800 mg cohorts. The text has this: Because the starting dose and any higher dose of Compound A is expected to be near or at the pharmacologically active range, each subject is required to have blood drawn and tumor biopsies for secondary and exploratory pharmacodynamic endpoints. The blood and tumor tissue samples are used to confirm AHR target engagement. Individual subjects can be exempted from the tumor biopsy requirement upon discussion and prior agreement by the Sponsor. The initial sampling strategy is based on the predicted human pharmacodynamics of Compound A. If in the course of evaluating the pharmacodynamics, it is determined that an alternative sampling scheme would be more informative, then that alternative sampling scheme can be implemented if the total amount of blood, blood draws, and tumor biopsies obtained for pharmacodynamics is not increased. Moreover, the total number of samples can be decreased at any time if the initial sampling scheme is considered unnecessarily intensive.

In the case of `CC(C)c1cnn2c(N[C@@H]3CCc4[nH]c5ccccc5c4C3)nc(-c3cncc(F)c3)nc12` [Compound A, (R)—N-(2-(5-fluoropyridin-3-yl)-8-isopropylpyrazolo[1,5-a][1,3,5]triazin-4-yl)-2,3,4,9-tetrahydro-1H-carbazol-3-amine], the “selectivity for AHR over other receptors, transporters, and kinases” value on AHR [1] is “highly selective”. In addition, the noteworthy findings entry in data set [2] was “emesis, loose stool, dehydration, body weight loss”. For the same compound, the “noteworthy findings (rats)” value in data set [3] was “non-glandular stomach ulceration and edema; also recorded: seminiferous tubule degeneration and debris in the epididymis lumen”. For the same compound, in data set [4] (Cycle 2 Day 1 (C2D1)), the “dose proportionality of PK” value is listed as “greater than dose proportional”. Besides, the “exposure with increase in dose” value in data set [4] (interim cohort PK) is given as “Increased exposure with increase in dose”. For the same compound, the “inhibition of expression of AHR target gene CYP1B1” value against AHR [5] was “Robust inhibition”.

(Values after US20240148740A1, “COMBINATION OF AN AHR INHIBITOR WITH A PDX INHIBITOR OR DOXORUBICINE” (Ikena Oncology, Inc., priority 2020, published 2024).)
